According to patent US20240109900A1, “AZABICYCLIC SHP2 INHIBITORS” (IRBM S.P.A., priority 2021, published 2024):

Experiments:
[1] = biological target: SHP-2 enzyme (Met1-Leu525) (Homo sapiens (Human), UniProt Q06124); experiment: SHP2 inhibition enzymatic assay; format: biochemical; details: 0.5 nM SHP-2 activated by 500 nM IRS1 peptide, 75 μM DiFMUP substrate; read-out: SHP2wt-IC50
Summary of the method: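 SHP-2 (Met1-Leu525), 0.5 nM, activated with 500 nM IRS1 bis-phosphopeptide, preincubated 30 min with compounds in HEPES pH 7.2 buffer with 5 mM DTT. 75 μM DiFMUP added for 30 min at room temperature, stopped with bpV; fluorescence read. IC50 from four-parameter logistic fit of % inhibition.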

[2] = tested on: ERK phosphorylation in KYSE-520 cells; experiment: Phospho-ERK cellular assay; format: cell-based; details: Homo sapiens, KYSE-520, 2 h, KYSE-520 cells, 2 h at 37° C., phospho-ERK1/2 (Thr202/Tyr204) TR-FRET; read-out: PERK IC50
Summary of the method: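 TR-FRET read-out of ERK1/2 Thr202/Tyr204 phosphorylation was taken after overnight antibody incubation at room temperature. Before that, KYSE-520 cells were treated 2 h at 37 °C with compound dilutions and lysed 30 min. Percent inhibition relative to vehicle and cell-free wells was fitted four-parametrically to give IC50.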

SHP-2 enzyme (Met1-Leu525), sequence (Q06124 1-525): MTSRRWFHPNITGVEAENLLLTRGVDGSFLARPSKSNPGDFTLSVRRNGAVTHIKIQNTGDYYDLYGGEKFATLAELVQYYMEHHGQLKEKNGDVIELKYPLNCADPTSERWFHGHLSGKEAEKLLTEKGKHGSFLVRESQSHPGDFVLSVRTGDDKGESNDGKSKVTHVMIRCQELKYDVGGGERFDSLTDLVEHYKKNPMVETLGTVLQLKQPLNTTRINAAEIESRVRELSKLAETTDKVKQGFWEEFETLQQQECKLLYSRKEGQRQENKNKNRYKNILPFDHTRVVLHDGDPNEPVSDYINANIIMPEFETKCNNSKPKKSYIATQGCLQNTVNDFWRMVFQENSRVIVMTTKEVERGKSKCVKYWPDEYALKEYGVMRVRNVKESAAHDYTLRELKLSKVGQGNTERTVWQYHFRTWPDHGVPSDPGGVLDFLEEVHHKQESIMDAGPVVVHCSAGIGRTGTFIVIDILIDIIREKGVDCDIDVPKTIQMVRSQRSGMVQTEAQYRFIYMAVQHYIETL

In the case of `NCC1(c2ccc(F)cc2)C2CCN(c3cnc4c(-c5ccc6nccnc6c5)n[nH]c4n3)CC21` (stereo not drawn) [Example 11, (7-(4-fluorophenyl)-3-(3-(quinoxalin-6-yl)-1H-pyrazolo[3,4-b]pyrazin-6-yl)-3-azabicyclo[4.1.0]heptan-7-yl)methanamine], the IC50 [1] is reported as < 500 nM and the IC50 [2] is reported as > 5000 nM.

For `NC[C@]1(c2ccccc2F)[C@@H]2CCN(c3cnc4c(-c5cc(Cl)c(C(N)=O)cc5F)n[nH]c4n3)C[C@@H]21` [Example 253, 4-(6-((1S,6R,7R)-7-(aminomethyl)-7-(2-fluorophenyl)-3-azabicyclo[4.1.0]heptan-3-yl)-1H-pyrazolo[3,4-b]pyrazin-3-yl)-2-chloro-5-fluorobenzamide], the IC50 [1] was < 500 nM and the IC50 [2] was < 1000 nM.

For `Cc1csc([C@@]2(CN)[C@@H]3CCN(c4cnc5c(-c6ccc7nn(C)c(Cl)c7c6Cl)n[nH]c5n4)C[C@@H]32)n1` [Example 445, ((1S,6R,7S)-3-(3-(3,4-dichloro-2-methyl-2H-indazol-5-yl)-1H-pyrazolo[3,4-b]pyrazin-6-yl)-7-(4-methylthiazol-2-yl)-3-azabicyclo[4.1.0]heptan-7-yl)methanamine], the IC50 [1] was < 500 nM and the IC50 [2] was < 1000 nM.

`Cn1ccc(-c2n[nH]c3nc(N4CC[C@@H]5[C@H](C4)[C@@]5(CN)c4ccccc4F)cnc23)c(Cl)c1=O` [Example 269, 4-(6-((1S,6R,7R)-7-(aminomethyl)-7-(2-fluorophenyl)-3-azabicyclo[4.1.0]heptan-3-yl)-1H-pyrazolo[3,4-b]pyrazin-3-yl)-3-chloro-1-methylpyridin-2(1H)-one] was tested, and the IC50 [1] was < 500 nM and the IC50 [2] was > 5000 nM.

`COc1ccc2cc(-c3n[nH]c4nc(N5CC[C@@H]6[C@H](C5)[C@@]6(CN)c5cc(C)on5)cnc34)ccc2n1` [Example 149, ((1S,6R,7S)-3-(3-(2-methoxyquinolin-6-yl)-1H-pyrazolo[3,4-b]pyrazin-6-yl)-7-(5-methylisoxazol-3-yl)-3-azabicyclo[4.1.0]heptan-7-yl)methanamine] was tested, and the IC50 [1] was < 500 nM and the IC50 [2] was < 1000 nM.

With `NC[C@]1(c2ccccc2F)[C@@H]2CCN(c3cnc4c(-c5ccc6cn[nH]c(=O)c6c5)n[nH]c4n3)C[C@@H]21` [Example 254, 7-(6-((1S,6R,7R)-7-(aminomethyl)-7-(2-fluorophenyl)-3-azabicyclo[4.1.0]heptan-3-yl)-1H-pyrazolo[3,4-b]pyrazin-3-yl)phthalazin-1(2H)-one] the IC50 [1] was < 500 nM and the IC50 [2] was < 1000 nM.

With `Cc1cc(C2(CN)C3CCN(c4cnc5c(-c6cccc7c6CNC7=O)n[nH]c5n4)CC32)no1` (stereo not drawn) [Example 19, 4-(6-(7-(aminomethyl)-7-(5-methylisoxazol-3-yl)-3-azabicyclo[4.1.0]heptan-3-yl)-1H-pyrazolo[3,4-b]pyrazin-3-yl)isoindolin-1-one] the IC50 [1] was < 500 nM and the IC50 [2] was < 1000 nM.

For `NC[C@]1(c2ccccc2F)[C@@H]2CCN(c3cnc4c(-c5ccc(O)nc5C(F)(F)F)n[nH]c4n3)C[C@@H]21` [Example 345, 5-(6-((1S,6R,7R)-7-(aminomethyl)-7-(2-fluorophenyl)-3-azabicyclo[4.1.0]heptan-3-yl)-1H-pyrazolo[3,4-b]pyrazin-3-yl)-6-(trifluoromethyl)pyridin-2-ol], the IC50 [1] was < 500 nM and the IC50 [2] was > 5000 nM.

`Cn1cc2c(Cl)c(-c3n[nH]c4nc(N5C[C@@H]6[C@H](C5)[C@@]6(CN)c5ccccc5F)cnc34)ccc2n1` [Example 499, ((1R,5S,6s)-3-(3-(4-chloro-2-methyl-2H-indazol-5-yl)-1H-pyrazolo[3,4-b]pyrazin-6-yl)-6-(2-fluorophenyl)-3-azabicyclo[3.1.0]hexan-6-yl)methanamine] was tested, and the IC50 [1] was < 500 nM and the IC50 [2] was < 1000 nM.

With `CN1C(=O)Cc2cc(-c3n[nH]c4nc(N5CC[C@@H]6[C@H](C5)[C@@]6(CN)c5ccccc5F)cnc34)ccc21` [Example 217, 5-(6-((1S,6R,7R)-7-(aminomethyl)-7-(2-fluorophenyl)-3-azabicyclo[4.1.0]heptan-3-yl)-1H-pyrazolo[3,4-b]pyrazin-3-yl)-1-methylindolin-2-one] the IC50 [1] was < 500 nM and the IC50 [2] was < 1000 nM.

In the case of `Cc1csc(C2(CN)C3CCN(c4cnc5c(-c6ccccc6Cl)n[nH]c5n4)CC32)n1` (stereo not drawn) [Example 84, (3-(3-(2-chlorophenyl)-1H-pyrazolo[3,4-b]pyrazin-6-yl)-7-(4-methylthiazol-2-yl)-3-azabicyclo[4.1.0]heptan-7-yl)methanamine], the IC50 [1] is reported as < 500 nM and the IC50 [2] is reported as < 1000 nM.

In the case of `COc1c(F)cc(-c2n[nH]c3nc(N4CC[C@@H]5[C@H](C4)[C@@]5(CN)c4ccccc4F)cnc23)c2cccnc12` [Example 225, ((1S,6R,7R)-3-(3-(7-fluoro-8-methoxyquinolin-5-yl)-1H-pyrazolo[3,4-b]pyrazin-6-yl)-7-(2-fluorophenyl)-3-azabicyclo[4.1.0]heptan-7-yl)methanamine], the IC50 [1] is reported as < 500 nM and the IC50 [2] is reported as < 1000 nM.

In the case of `Cc1c(-c2n[nH]c3nc(N4CC[C@@H]5[C@H](C4)[C@@]5(CN)c4ccccc4F)cnc23)cnn1C` [Example 348, ((1S,6R,7R)-3-(3-(1,5-dimethyl-1H-pyrazol-4-yl)-1H-pyrazolo[3,4-b]pyrazin-6-yl)-7-(2-fluorophenyl)-3-azabicyclo[4.1.0]heptan-7-yl)methanamine], the IC50 [1] is reported as < 500 nM and the IC50 [2] is reported as < 1000 nM.

`NCC1C2CCN(c3cnc4c(-c5cccc(Cl)c5Cl)n[nH]c4n3)CC12` (stereo not drawn) [Example 100, (3-(3-(2,3-dichlorophenyl)-1H-pyrazolo[3,4-b]pyrazin-6-yl)-3-azabicyclo[4.1.0]heptan-7-yl)methanamine] was tested, and the IC50 [1] was < 500 nM and the IC50 [2] was < 1000 nM.

In the case of `NCC1(c2ccc(F)cc2)C2CCN(c3cnc4c(-c5cccc(Cl)c5Cl)n[nH]c4n3)CC21` (stereo not drawn) [Example 10, (3-(3-(2,3-dichlorophenyl)-1H-pyrazolo[3,4-b]pyrazin-6-yl)-7-(4-fluorophenyl)-3-azabicyclo[4.1.0]heptan-7-yl)methanamine], the IC50 [1] is reported as < 500 nM and the IC50 [2] is reported as < 1000 nM.

In the case of `NC[C@]1(c2ccccc2F)[C@@H]2CCN(c3cnc4c(-c5ccc6c(=O)[nH]ccc6c5)n[nH]c4n3)C[C@@H]21` [Example 240, 6-(6-((1S,6R,7R)-7-(aminomethyl)-7-(2-fluorophenyl)-3-azabicyclo[4.1.0]heptan-3-yl)-1H-pyrazolo[3,4-b]pyrazin-3-yl)isoquinolin-1(2H)-one], the IC50 [1] is reported as < 500 nM and the IC50 [2] is reported as < 1000 nM.

`NC[C@]1(c2ccccc2F)[C@@H]2CCN(c3cnc4c(-c5ccc6nn(CC(F)(F)F)cc6c5Cl)n[nH]c4n3)C[C@@H]21` [Example 361, ((1S,6R,7R)-3-(3-(4-chloro-2-(2,2,2-trifluoroethyl)-2H-indazol-5-yl)-1H-pyrazolo[3,4-b]pyrazin-6-yl)-7-(2-fluorophenyl)-3-azabicyclo[4.1.0]heptan-7-yl)methanamine] was tested, and the IC50 [1] was < 500 nM and the IC50 [2] was < 1000 nM.

For `Cc1nc2ccc(-c3n[nH]c4nc(N5CC[C@@H]6[C@H](C5)[C@@]6(CN)c5ccon5)cnc34)c(Cl)c2s1` [Example 124, ((1S,6R,7S)-3-(3-(7-chloro-2-methylbenzo[d]thiazol-6-yl)-1H-pyrazolo[3,4-b]pyrazin-6-yl)-7-(isoxazol-3-yl)-3-azabicyclo[4.1.0]heptan-7-yl)methanamine], the IC50 [1] was < 500 nM and the IC50 [2] was < 1000 nM.

In the case of `Cc1cc([C@@]2(CN)[C@@H]3CCN(c4cnc5c(-c6cccn7nccc67)n[nH]c5n4)C[C@@H]32)no1` [Example 129, ((1S,6R,7S)-7-(5-methylisoxazol-3-yl)-3-(3-(pyrazolo[1,5-a]pyridin-4-yl)-1H-pyrazolo[3,4-b]pyrazin-6-yl)-3-azabicyclo[4.1.0]heptan-7-yl)methanamine], the IC50 [1] is reported as < 500 nM and the IC50 [2] is reported as < 1000 nM.

With `NC[C@]1(c2ccccc2F)[C@@H]2CCN(c3cnc4c(-c5cccn6nccc56)n[nH]c4n3)C[C@@H]21` [Example 131, ((1S,6R,7R)-7-(2-fluorophenyl)-3-(3-(pyrazolo[1,5-a]pyridin-4-yl)-1H-pyrazolo[3,4-b]pyrazin-6-yl)-3-azabicyclo[4.1.0]heptan-7-yl)methanamine] the IC50 [1] was < 500 nM and the IC50 [2] was < 1000 nM.

With `Cc1csc([C@@]2(CN)[C@@H]3CCN(c4cnc5c(-c6ccc7nn(C)cc7c6Cl)n[nH]c5n4)C[C@@H]32)n1` [Example 79, ((1S,6R,7S)-3-(3-(4-chloro-2-methyl-2H-indazol-5-yl)-1H-pyrazolo[3,4-b]pyrazin-6-yl)-7-(4-methylthiazol-2-yl)-3-azabicyclo[4.1.0]heptan-7-yl)methanamine] the IC50 [1] was < 500 nM and the IC50 [2] was < 1000 nM.

For `Cc1csc([C@@]2(CN)[C@@H]3CCN(c4cnc5c(-c6ccn7nc(C)cc7c6Cl)n[nH]c5n4)C[C@@H]32)n1` [Example 440, ((1S,6R,7S)-3-(3-(4-chloro-2-methylpyrazolo[1,5-a]pyridin-5-yl)-1H-pyrazolo[3,4-b]pyrazin-6-yl)-7-(4-methylthiazol-2-yl)-3-azabicyclo[4.1.0]heptan-7-yl)methanamine], the IC50 [1] was < 500 nM and the IC50 [2] was < 1000 nM.

`Cc1cc([C@@]2(CN)[C@@H]3CCN(c4cnc5c(-c6cccc7c6OCCO7)n[nH]c5n4)C[C@@H]32)no1` [Example 40, ((1S,6R,7S)-3-(3-(2,3-dihydrobenzo[b][1,4]dioxin-5-yl)-1H-pyrazolo[3,4-b]pyrazin-6-yl)-7-(5-methylisoxazol-3-yl)-3-azabicyclo[4.1.0]heptan-7-yl)methanamine] was tested, and the IC50 [1] was < 500 nM and the IC50 [2] was < 1000 nM.

`NCC1C2CCN(c3cnc(Sc4cccnc4C(F)(F)F)c(N)n3)CC12` (stereo not drawn) [Example 75, 6-(7-(aminomethyl)-3-azabicyclo[4.1.0]heptan-3-yl)-3-((2-(trifluoromethyl)pyridin-3-yl)thio)pyrazin-2-amine] was tested, and the IC50 [1] was < 500 nM and the IC50 [2] was > 5000 nM.
